Reference: patent publication US8697691B2, “Alkyl 3-((2-amidoethyl)amino)-8-azabicyclo[3.2.1]octane-8-carboxylate analogs as selective M1 agonists and methods of making and using same” (Vanderbilt University, priority 2009, dated 2014)

How the values were obtained:
hM4 receptor = target: T1, hM4 receptor (Homo sapiens, UniProt P08173); assay: Calcium mobilization assay, CHO-K1 cells stably expressing hM4-Gqi5; type: cell-based
T1 construct: host or cells: CHO-K1, additionally stably transfected with Gqi5
T1 sequence (P08173 1-479): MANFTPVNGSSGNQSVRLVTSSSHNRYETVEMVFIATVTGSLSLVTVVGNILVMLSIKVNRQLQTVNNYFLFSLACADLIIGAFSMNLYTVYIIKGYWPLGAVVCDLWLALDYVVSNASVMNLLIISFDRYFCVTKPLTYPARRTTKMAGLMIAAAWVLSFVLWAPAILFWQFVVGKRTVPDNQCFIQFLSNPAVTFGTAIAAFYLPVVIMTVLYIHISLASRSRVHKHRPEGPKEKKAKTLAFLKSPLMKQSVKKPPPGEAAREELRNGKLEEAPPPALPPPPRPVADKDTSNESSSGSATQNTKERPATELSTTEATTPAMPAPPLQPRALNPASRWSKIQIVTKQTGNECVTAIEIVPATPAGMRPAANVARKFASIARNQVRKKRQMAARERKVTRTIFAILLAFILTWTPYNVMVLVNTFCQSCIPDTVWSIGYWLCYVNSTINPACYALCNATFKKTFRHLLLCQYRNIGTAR
From the text: (§1) Chinese hamster ovary (CHO-K1) cells stably expressing rat (r)M1 were purchased from the American Type Culture Collection and cultured according to their indicated protocol. CHO cells stably expressing human (h)M2, hM3, and hM5 were described previously (Levey et al., 1991); hM1 and hM4 cDNAs were purchased from Missouri S&T cDNA Resource; rM4 cDNA was provided by T. I. Bonner (National Institutes of Health, Bethesda, Md.). hM1, hM4, and rM4 cDNAs were used to stably transfect CHO-K1 cells purchased from the American Type Culture Collection using Lipofectamine2000. […]
(§2) For low throughput measurement of agonist-evoked increases in intracellular calcium, CHO-K1 cells stably expressing muscarinic receptors were plated in 100 μL of growth medium at 5×10^4 (rM1, hM3, and hM5) or 6×10^4 cells per well (rM1 Y381A, hM2, and rM4) in Costar 96-well black-walled, tissue culture (TC)-treated, clear-bottom plates (Fisher). […] For calcium fluorescence measurements, CRCs of compounds (50 μl, 2×) were added 19 s after the beginning of data collection via a Flexstation II (Molecular Devices, Sunnyvale, Calif.). Fluorescence imaging continued for a total of 130 s acquisition time using an excitation wavelength of 488 nm, an emission wavelength of 525 nm, and a cutoff wavelength of 515 nm. […]

hM2 receptor = hM2 receptor (Homo sapiens, UniProt P08172); assay: Calcium mobilization assay, CHO cells stably expressing hM2-Gqi5; type: cell-based
From the text: as §1, §2

hM2 receptor, sequence (P08172 whole entry): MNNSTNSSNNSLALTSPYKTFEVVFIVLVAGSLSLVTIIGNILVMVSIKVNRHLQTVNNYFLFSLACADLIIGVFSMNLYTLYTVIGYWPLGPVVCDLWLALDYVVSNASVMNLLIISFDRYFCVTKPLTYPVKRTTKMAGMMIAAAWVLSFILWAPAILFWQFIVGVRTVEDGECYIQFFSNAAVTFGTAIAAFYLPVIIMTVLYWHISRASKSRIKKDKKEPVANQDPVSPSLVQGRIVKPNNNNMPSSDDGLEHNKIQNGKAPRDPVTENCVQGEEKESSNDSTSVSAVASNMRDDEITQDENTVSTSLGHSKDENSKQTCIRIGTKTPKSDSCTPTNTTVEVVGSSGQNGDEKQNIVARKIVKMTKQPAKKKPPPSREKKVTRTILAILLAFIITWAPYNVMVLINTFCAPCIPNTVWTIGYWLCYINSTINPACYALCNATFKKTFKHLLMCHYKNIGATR

CCOC(=O)N1[C@@H]2CC[C@H]1C[C@@H](NCCNC(=O)c1ccccc1)C2 [Example 27, ethyl 3-((3-endo)-(2-benzamidoethyl)amino)-8-azabicyclo[3.2.1]octane-8-carboxylate]
EC50 (hM4 receptor): ~3 µM | EC50 (hM2 receptor): ~3 µM

CCOC(=O)N1[C@@H]2CC[C@H]1C[C@H](NCCNC(=O)c1ccccc1)C2 [Example 26, ethyl 3-((3-exo)-(2-benzamidoethyl)amino)-8-azabicyclo[3.2.1]octane-8-carboxylate]
EC50 (hM4 receptor): > 10 µM | EC50 (hM2 receptor): > 10 µM
